Values after ≈ are worked out from the molar mass of the structure shown. Where two headings read alike, the source gives them in different places.
Experiments:
OXA-24/40 = OXA-24/40 (Acinetobacter baumannii, UniProt Q8RLA6); test: In vitro SBL inhibition assay (nitrocefin hydrolysis), IC50; type: biochemical; details: 10 min preincubation, 30°C, read-out: Enzyme IC50
Method: (§1) Nitrocefin (Sigma-Aldrich, St Louis, MO, USA), a chromogenic cephalosporin antibiotic (λ, 482 nm; εM, 15,000 M^−1.cm^−1), was used as a reporter substrate at 100 µM for KPC-2, OXA-23, and OXA-48, at 200 µM for OXA-24 and OXA-51, and at 50 µM for OXA-58. Enzymes were preincubated in the presence of varying concentrations of each compound (0.006 to 3000 nM, diluted twofold in dimethyl sulfoxide (DMSO) for KPC-2, OXA-23, and OXA-48 assays and 0.51 to 10,000 nM diluted threefold in DMSO for OXA-24, OXA-51, and OXA-58) for 10 min at 30°C. Nitrocefin was then added and its hydrolysis by the uninhibited enzyme fraction was followed at an absorbance wavelength of 482 nm for 10 min at 30°C using Envision UV fluorescence plate reader (Perkin Elmer, Waltham, MA, USA). Hydrolysis rate data were used to determine inhibitory activities, expressed in IC50 values [corresponding to the compound concentration (µM) required to inhibit 50% of enzymatic reaction].

OXA-23 = OXA-23 (Acinetobacter baumannii, UniProt Q9L4P2); test: as above; type: biochemical; details: 10 min preincubation, 30°C, read-out: Enzyme IC50
OXA-23, sequence (Q9L4P2 18-273): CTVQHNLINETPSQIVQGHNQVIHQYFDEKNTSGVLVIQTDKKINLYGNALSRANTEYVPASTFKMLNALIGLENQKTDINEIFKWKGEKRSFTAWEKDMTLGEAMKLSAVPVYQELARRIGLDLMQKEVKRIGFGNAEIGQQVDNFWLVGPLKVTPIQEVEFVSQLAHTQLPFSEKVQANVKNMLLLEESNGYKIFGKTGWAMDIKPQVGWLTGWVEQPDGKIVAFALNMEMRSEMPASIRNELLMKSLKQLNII
Method: as §1

OXA-58 = OXA-58 (Acinetobacter baumannii, UniProt Q2TR58); test: as above; type: biochemical, A. baumannii
OXA-58, sequence (Q2TR58 19-280): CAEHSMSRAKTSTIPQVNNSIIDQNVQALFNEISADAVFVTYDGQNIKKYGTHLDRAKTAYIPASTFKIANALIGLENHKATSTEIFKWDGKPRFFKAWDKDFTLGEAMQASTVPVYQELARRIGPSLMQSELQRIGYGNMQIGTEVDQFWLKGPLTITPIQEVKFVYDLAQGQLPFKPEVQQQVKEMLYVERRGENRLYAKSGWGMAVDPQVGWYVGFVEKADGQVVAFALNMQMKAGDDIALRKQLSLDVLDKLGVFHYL
Method: as §1

OXA-51 = OXA-51 (Acinetobacter baumannii, UniProt Q5QT35); test: as above; type: biochemical, A. baumannii; details: 10 min preincubation, 30°C, read-out: Enzyme IC50
OXA-51, sequence (Q5QT35 entry or part of it): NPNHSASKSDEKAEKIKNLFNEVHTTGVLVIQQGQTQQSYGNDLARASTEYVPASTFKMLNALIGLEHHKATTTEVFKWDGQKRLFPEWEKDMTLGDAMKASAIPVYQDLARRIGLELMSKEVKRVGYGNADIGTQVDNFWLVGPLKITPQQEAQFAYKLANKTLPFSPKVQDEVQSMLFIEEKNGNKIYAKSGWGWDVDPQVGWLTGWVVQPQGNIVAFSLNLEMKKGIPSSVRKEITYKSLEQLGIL
Method: as §1

[1] = test system: carbapenem-resistant Acinetobacter baumannii (CRAB) clinical isolates; test: Broth microdilution MIC, CRAB isolates; type: cell-based; details: for Number of isolates inhibited at MIC of 0.25 µg/mL / Number of isolates inhibited at MIC of 0.5 µg/mL / Number of isolates inhibited at MIC of 1 µg/mL / Number of isolates inhibited at MIC of 2 µg/mL / Number of isolates inhibited at MIC of 4 µg/mL / Number of isolates inhibited at MIC of 8 µg/mL / Number of isolates inhibited at MIC of 16 µg/mL / Number of isolates inhibited at MIC of 32 µg/mL / Number of isolates inhibited at MIC of >32 µg/mL / Number of isolates inhibited at MIC of ≤0.125 µg/mL / MIC50 / MIC90: CRAB (MEM MICs >4 µg/mL); for CLSI % Res / CLSI % Sus: CRAB, CLSI BP; for CLSI % Res: for MEM-ANT3310 % at ≥16 µg/mL; for CLSI % Sus: for MEM-ANT3310 % inhibited at ≤8 µg/mL; for MIC90: read-out: MIC90
Method: (§2) All isolates were randomly selected from the frozen culture collection of IHMA collected in 2018 and 2019. Matrix-assisted laser desorption ionization-time of flight mass spectrometry was used to confirm the identity of the organisms tested (Bruker Daltonics, Bremen, Germany).
(§3) MICs for all antimicrobial agents were determined at IHMA by broth microdilution in accordance with both CLSI ([17]) and EUCAST ([18]) guidelines. Microtiter panels were prepared by IHMA and stored at −70°C in cation-adjusted Mueller Hinton broth (CAMHB) (Becton Dickinson). Iron-depleted CAMHB was used to test cefiderocol. Panels containing ANT3310 were prepared fresh on the day of testing. […] MIC values corresponded to the first well with no visible growth. Quality control testing was performed on each day of testing with E. coli ATCC 25922, P. aeruginosa ATCC 27853, K. pneumoniae ATCC 700603 and BAA 1705, and A. baumannii NCTC 13304. MICs were interpreted using 2023 CLSI ([17]) and EUCAST ([18]) BPs.

[2] = test system: KPC-producing Enterobacterales (KPC-CRE); test: organism not typed; type: cell-based
Method: as §2, §3

[3] = test system: OXA-producing Enterobacterales (OXA-CRE); test: organism not typed; type: cell-based
Method: as §2, §3

[4] = test system: A. baumannii clinical isolates; test: Broth microdilution MIC, A. baumannii clinical isolates; type: cell-based, Acinetobacter baumannii; details: for CLSI % Res: for MEM-ANT3310 % at ≥16 µg/mL; for MIC90: read-out: MIC90
Method: as §2, §3

[5] = test system: P. aeruginosa clinical isolates; test: Broth microdilution MIC, P. aeruginosa clinical isolates; type: cell-based, Pseudomonas aeruginosa; details: 502 P. aeruginosa, 2019 global collection
Method: as §2, §3

OXA-48 = OXA-48 (Klebsiella pneumoniae, UniProt Q6XEC0); test: In vitro SBL inhibition assay (nitrocefin hydrolysis), IC50; type: biochemical; details: 10 min preincubation, 30°C, read-out: Enzyme IC50
OXA-48, sequence (Q6XEC0 23-265, looked up, species assumed): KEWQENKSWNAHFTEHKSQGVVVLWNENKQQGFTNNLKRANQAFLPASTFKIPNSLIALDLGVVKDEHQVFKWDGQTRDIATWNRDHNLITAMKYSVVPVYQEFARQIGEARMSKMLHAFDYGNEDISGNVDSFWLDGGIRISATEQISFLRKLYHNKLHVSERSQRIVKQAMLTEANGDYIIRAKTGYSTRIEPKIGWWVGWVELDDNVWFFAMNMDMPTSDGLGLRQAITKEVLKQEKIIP
Method: as §1

KPC-2 = KPC-2 (Klebsiella pneumoniae, UniProt Q9F663); test: as above; type: biochemical
KPC-2, sequence (Q9F663 25-293 limits assumed): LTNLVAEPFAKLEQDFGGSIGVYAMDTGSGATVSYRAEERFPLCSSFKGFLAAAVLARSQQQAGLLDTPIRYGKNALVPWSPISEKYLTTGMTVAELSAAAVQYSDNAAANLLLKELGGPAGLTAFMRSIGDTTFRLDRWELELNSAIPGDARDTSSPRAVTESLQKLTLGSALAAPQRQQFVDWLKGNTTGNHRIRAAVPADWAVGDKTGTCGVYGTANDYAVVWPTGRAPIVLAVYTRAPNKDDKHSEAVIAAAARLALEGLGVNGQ
Method: as §1

[6] = 180 KPC-producing Enterobacterales, EUCAST BP
[7] = 252 OXA-producing Enterobacterales, EUCAST BP
[8] = 2018 Global collection, All A. baumannii, N 500
[9] = 2019 Global collection, All A. baumannii, N 405

OXA-24/40, sequence (Q8RLA6 22-275): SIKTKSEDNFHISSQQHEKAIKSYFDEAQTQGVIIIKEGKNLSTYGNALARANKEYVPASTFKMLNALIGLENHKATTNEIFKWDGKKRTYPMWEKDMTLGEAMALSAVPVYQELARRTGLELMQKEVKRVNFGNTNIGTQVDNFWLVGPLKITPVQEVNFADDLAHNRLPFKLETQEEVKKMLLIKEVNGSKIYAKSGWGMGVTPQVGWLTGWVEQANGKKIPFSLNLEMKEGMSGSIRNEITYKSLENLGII

## O=C(NC1CCNCC1)[C@@H]1CC[C@@H]2CN1C(=O)N2OS(=O)(=O)O (relative stereo) [Rel, relebactam]
OXA-24/40
  IC50: > 10000 nM
OXA-23
  IC50: > 3000 nM
OXA-58
  IC50: > 10000 nM
OXA-51
  IC50: > 10000 nM

## CC(C)(O/N=C(\C(=O)N[C@@H]1C(=O)N2C(C(=O)[O-])=C(C[N+]3(CCNC(=O)c4ccc(O)c(O)c4Cl)CCCC3)CS[C@H]12)c1csc(N)n1)C(=O)O [Cefiderocol, cefiderocol]
[1]; 2018 Global collection, N 363
  Number of isolates inhibited at MIC of 0.25 µg/mL: 63
  Number of isolates inhibited at MIC of 0.5 µg/mL: 99
  Number of isolates inhibited at MIC of 1 µg/mL: 72
  Number of isolates inhibited at MIC of 2 µg/mL: 49
  Number of isolates inhibited at MIC of 4 µg/mL: 21
  Number of isolates inhibited at MIC of 8 µg/mL: 3
  Number of isolates inhibited at MIC of 16 µg/mL: 3
  Number of isolates inhibited at MIC of 32 µg/mL: 2
  Number of isolates inhibited at MIC of >32 µg/mL: 17
  Number of isolates inhibited at MIC of ≤0.125 µg/mL: 34
  CLSI % Res: 12.7%
  CLSI % Sus: 73.8%
[1]; 2019 Global collection, N 340
  MIC50: 0.5 µg/mL (≈ 0.665 µM)
  Number of isolates inhibited at MIC of 0.25 µg/mL: 64
  Number of isolates inhibited at MIC of 0.5 µg/mL: 93
  Number of isolates inhibited at MIC of 1 µg/mL: 61
  Number of isolates inhibited at MIC of 2 µg/mL: 34
  Number of isolates inhibited at MIC of 4 µg/mL: 19
  Number of isolates inhibited at MIC of 8 µg/mL: 9
  Number of isolates inhibited at MIC of 16 µg/mL: 8
  Number of isolates inhibited at MIC of 32 µg/mL: 2
  Number of isolates inhibited at MIC of >32 µg/mL: 18
  Number of isolates inhibited at MIC of ≤0.125 µg/mL: 32
  CLSI % Res: 16.5%
  CLSI % Sus: 73.5%
[1]; Acinetobacter baumannii, 2018 Global collection, N 363, read-out: MIC50
  MIC50: 0.5 µg/mL (≈ 0.665 µM)
[1]; Acinetobacter baumannii, 2018 Global collection, N 363
  MIC90: 4 µg/mL (≈ 5.32 µM)
[1]; Acinetobacter baumannii, 2019 Global collection, N 340
  MIC90: 8 µg/mL (≈ 10.6 µM)
[2]
  MIC50: 1 µg/mL (≈ 1.33 µM)
  MIC90: 4 µg/mL (≈ 5.32 µM)
[2]; 180 KPC-producing Enterobacterales, CLSI BP, for MEM-ANT3310 % at ≥16 µg/mL
  CLSI % Res: 0%
[2]; 180 KPC-producing Enterobacterales, CLSI BP, for MEM-ANT3310 % inhibited at ≤8 µg/mL
  CLSI % Sus: 100%
[2]; [6]
  EUCAST % Res: 27.2%
  EUCAST % Sus: 72.8%
[3]
  MIC50: 1 µg/mL (≈ 1.33 µM)
  MIC90: 4 µg/mL (≈ 5.32 µM)
[3]; 252 OXA-producing Enterobacterales, CLSI BP, for MEM-ANT3310 % at ≥16 µg/mL
  CLSI % Res: 0.4%
[3]; 252 OXA-producing Enterobacterales, CLSI BP, for MEM-ANT3310 % inhibited at ≤8 µg/mL
  CLSI % Sus: 98.8%
[3]; [7]
  EUCAST % Res: 21.8%
  EUCAST % Sus: 78.2%
[4]; [8]
  Number of isolates inhibited at MIC of 0.25 µg/mL: 83
  Number of isolates inhibited at MIC of 0.5 µg/mL: 111
  Number of isolates inhibited at MIC of 1 µg/mL: 78
  Number of isolates inhibited at MIC of 2 µg/mL: 52
  Number of isolates inhibited at MIC of 4 µg/mL: 24
  Number of isolates inhibited at MIC of 8 µg/mL: 3
  Number of isolates inhibited at MIC of 16 µg/mL: 3
  Number of isolates inhibited at MIC of 32 µg/mL: 2
  Number of isolates inhibited at MIC of >32 µg/mL: 21
  Number of isolates inhibited at MIC of ≤0.125 µg/mL: 123
[4]; 2018 Global collection, All A. baumannii, N 500, CLSI BP
  CLSI % Res: 10.6%
[4]; [9]
  MIC50: 0.5 µg/mL (≈ 0.665 µM)
  Number of isolates inhibited at MIC of 0.25 µg/mL: 72
  Number of isolates inhibited at MIC of 0.5 µg/mL: 99
  Number of isolates inhibited at MIC of 1 µg/mL: 64
  Number of isolates inhibited at MIC of 2 µg/mL: 35
  Number of isolates inhibited at MIC of 4 µg/mL: 19
  Number of isolates inhibited at MIC of 8 µg/mL: 12
  Number of isolates inhibited at MIC of 16 µg/mL: 8
  Number of isolates inhibited at MIC of 32 µg/mL: 2
  Number of isolates inhibited at MIC of >32 µg/mL: 18
  Number of isolates inhibited at MIC of ≤0.125 µg/mL: 76
[4]; 2019 Global collection, All A. baumannii, N 405, CLSI BP
  CLSI % Res: 14.6%
[4]; 2019 Global collection, All A. baumannii, N 405, CLSI BP, for MEM-ANT3310 % inhibited at ≤8 µg/mL
  CLSI % Sus: 76.8%
[4]; Acinetobacter baumannii, 2018 Global collection, All A. baumannii, N 500, read-out: MIC50
  MIC50: 0.5 µg/mL (≈ 0.665 µM)
[4]; Acinetobacter baumannii, 2018 Global collection, All A. baumannii, N 500
  MIC90: 4 µg/mL (≈ 5.32 µM)
[4]; Acinetobacter baumannii, 2019 Global collection, All A. baumannii, N 405
  MIC90: 4 µg/mL (≈ 5.32 µM)
[4]; Acinetobacter baumannii, A. baumannii, one or both of the 2018/2019 collections
  MIC90: 4 µg/mL (≈ 5.32 µM)
[5]
  Number of isolates inhibited at MIC of 0.25 µg/mL: 125
  Number of isolates inhibited at MIC of 0.5 µg/mL: 92
  Number of isolates inhibited at MIC of 1 µg/mL: 33
  Number of isolates inhibited at MIC of 2 µg/mL: 16
  Number of isolates inhibited at MIC of 4 µg/mL: 7
  Number of isolates inhibited at MIC of 8 µg/mL: 1
  Number of isolates inhibited at MIC of 32 µg/mL: 1
  Number of isolates inhibited at MIC of ≤0.125 µg/mL: 227
[5]; Pseudomonas aeruginosa, read-out: MIC50
  MIC50: 0.25 µg/mL (≈ 0.332 µM)
[5]; Pseudomonas aeruginosa, read-out: MIC90
  MIC90: 1 µg/mL (≈ 1.33 µM)

## NCCN[C@H]1CC[C@H](CC(=O)N[C@H]2Cc3cccc(C(=O)O)c3OB2O)CC1 [Tan, taniborbactam]
OXA-48
  IC50: 1560 nM
OXA-24/40
  IC50: > 10000 nM
KPC-2
  IC50: 15.8 nM
OXA-23
  IC50: > 3000 nM
OXA-58
  IC50: > 10000 nM
OXA-51
  IC50: > 10000 nM

## CC1=C[C@@H]2CN(C(=O)N2OS(=O)(=O)O)[C@@H]1C(N)=O [Dur, durlobactam]
OXA-48
  IC50: 3.4 nM
OXA-24/40
  IC50: 208 nM
KPC-2
  IC50: 5.3 nM
OXA-23
  IC50: 347 nM
OXA-58
  IC50: 11 nM
OXA-51
  IC50: 4300 nM
